Source: patent US5846976A, “Androstenone derivative” (Glaxo Wellcome Inc., priority 1996, dated 1998)

Key:
5α-reductase = experiment: Potency compared to finasteride and SKF105657
[1] = Half-life compared to finasteride and SKF105657
Human Adrenal 3BHSD = target: T1, Human Adrenal 3BHSD (Homo sapiens, UniProt P26439); experiment: Human adrenal 3β-hydroxy-Δ^5-steroid dehydrogenase/3-keto-Δ^5-steroid isomerase inhibition (microsomes, conversion of DHEA to androstenedione); type: biochemical
T1 construct: microsomes derived from human adrenal tissues; from tissue; host or cells: human adrenal tissue (microsomes)
T1 sequence (P26439 1-372): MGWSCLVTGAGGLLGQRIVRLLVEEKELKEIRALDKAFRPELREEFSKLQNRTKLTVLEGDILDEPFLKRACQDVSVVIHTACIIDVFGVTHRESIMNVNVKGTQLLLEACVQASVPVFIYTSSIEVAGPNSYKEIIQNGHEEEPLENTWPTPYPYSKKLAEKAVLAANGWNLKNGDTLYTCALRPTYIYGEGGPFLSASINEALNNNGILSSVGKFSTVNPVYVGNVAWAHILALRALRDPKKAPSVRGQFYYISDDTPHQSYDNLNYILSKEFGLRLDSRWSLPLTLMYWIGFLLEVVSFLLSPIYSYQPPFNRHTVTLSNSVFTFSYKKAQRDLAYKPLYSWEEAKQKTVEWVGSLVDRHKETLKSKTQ
Procedure: Enzyme activities are measured using microsomes derived from human adrenal tissues. Microsomes were prepared by homogenization of the tissue followed by differential centrifugation of the homogenate. Microsome extracts were incubated with varying concentrations of dehydroepiandrosterone (DHEA), 1 mM NAD+, and varying amounts of the compound of Formula (I), i.e. a test compound, in pH 7.5 buffer for a period of time within the range of 1 to 60 minutes. Corresponding incubations were carried out with no test compound as a control study. The percentage of conversion of DHEA to androstenedione in the presence of test compounds compared to the corresponding conversion in the control study was estimated using HPLC with radiochemical detection.

[2] = target: T2, human type 2 5α-reductase (Homo sapiens, UniProt P31213); experiment: Steroid 5α-reductase type 2 inhibition (microsomes, conversion of testosterone to DHT); type: biochemical
T2 construct: made in house; host or cells: SF9 insect cells infected with recombinant baculovirus (microsomes)
T2 sequence (P31213 1-254): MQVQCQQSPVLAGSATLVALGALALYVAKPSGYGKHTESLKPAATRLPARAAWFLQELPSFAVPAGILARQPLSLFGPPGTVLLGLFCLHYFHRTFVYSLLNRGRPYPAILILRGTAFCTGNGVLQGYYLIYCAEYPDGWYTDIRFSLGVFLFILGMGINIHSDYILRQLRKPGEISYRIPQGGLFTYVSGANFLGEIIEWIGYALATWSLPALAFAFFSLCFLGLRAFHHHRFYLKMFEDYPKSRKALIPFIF
Procedure: (§1) Enzyme activies may be determined using microsomes derived from: 1) prostate tissue from benign prostatic hyperplasia (BPH) patients; 2) recombinant baculovirus infected SF9 cells that express human type 1 5α-reductase; or 3) recombinant baculovirus infected SF9 cells that express human type 2 5α-reductase. Microsomes were prepared by homogenization of the tissue or cells, followed by differential centrifugation of the homogenate. Microsome extracts were incubated with varying concentrations of [1,2,6,7-3H]-testosterone, 1 mM NADPH, and varying amounts of the compounds of Formula I, i.e. a test compound, in buffer containing a NADPH regenerating system capable of maintaining NADPH concentrations for a period of time within the range 0.5-240 minutes. Corresponding incubations were carried out with no test compound as a control study. For clone 1 IC50 measurements, assay components except testosterone were preincubated for 10 minutes at pH 7.0, and following the addition of 100 nM testosterone the assays were allowed to proceed for 10-120 minutes. For clone 2 IC50 measurements, assay components except testosterone were preincubated for 20 minutes at pH 6.0, and following the addition of 8 nM testosterone the assays were allowed to proceed for 20-40 minutes. […]

[3] = target: T3, human type 1 5α-reductase (Homo sapiens, UniProt P18405); experiment: Steroid 5α-reductase type 1 inhibition (microsomes, conversion of testosterone to DHT); type: biochemical
T3 construct: made in house; host or cells: SF9 insect cells infected with recombinant baculovirus (microsomes)
T3 sequence (P18405 1-259): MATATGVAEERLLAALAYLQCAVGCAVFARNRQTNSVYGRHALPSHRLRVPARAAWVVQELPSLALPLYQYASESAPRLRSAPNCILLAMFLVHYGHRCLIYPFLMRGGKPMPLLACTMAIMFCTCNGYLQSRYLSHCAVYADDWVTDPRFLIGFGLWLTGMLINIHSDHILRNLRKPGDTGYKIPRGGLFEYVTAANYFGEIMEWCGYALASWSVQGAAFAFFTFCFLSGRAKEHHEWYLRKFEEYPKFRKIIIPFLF
Procedure: as §1

[4] = tested on: porcine granulosa cell 3β-hydroxy-Δ^5-steroid dehydrogenase/3-keto-Δ^5-steroid isomerase (3BHSD); conditions: Tan et al. 1987; Brandt and Levy 1989; cited from earlier work
[5] = tested on: bovine adrenal 3β-hydroxy-Δ^5-steroid dehydrogenase/3-keto-Δ^5-steroid isomerase (3BHSD); conditions: Tan et al. 1987; Brandt and Levy 1989; cited from earlier work
[6] = McConnell 1990; Rasmusson et al. 1984; cited from earlier work

In the case of C[C@]12C=CC(=O)N[C@@H]1CC[C@@H]1[C@@H]2CC[C@]2(C)[C@@H](C(=O)Nc3cc(C(F)(F)F)ccc3C(F)(F)F)CC[C@@H]12 [compound of formula (I), 17β-N-(2,5-bis(Trifluoromethyl))phenylcarbamoyl-4-aza-5α-androst-1-en-3-one], the potency (5α-reductase) is reported as “surprisingly long half-life and potency compared to finasteride and SKF105657”, the half-life [1] is reported as “surprisingly long half-life” and the Ki (Human Adrenal 3BHSD) is reported as > 1000 nM. The IC50 [2] was < 1 nM and the IC50 [3] was < 1 nM.
In the case of CCN(CC)C(=O)[C@H]1CC[C@H]2[C@@H]3CC[C@H]4N(C)C(=O)CC[C@]4(C)[C@H]3CC[C@]12C [4-MA], the “inhibition of porcine granulosa cell 3BHSD” value [4] is listed as “potent inhibition”, the “inhibition of bovine adrenal 3BHSD” value [5] is listed as “potent inhibition” and the hepatotoxicity [6] is listed as “hepatotoxicity”.
